The values that follow come from patent US20260042764A1, “COMPOSITIONS AND METHODS FOR INHIBITION OF KRAS” (TheRas, Inc., priority 2022, published 2026).

Structures are written as SMILES.

The target of assay [1] is T1, Avi-KRAS G12C (2-169) GTP/RAF1 RBD-3xFLAG (51-131) (Homo sapiens, UniProt P01116, G12C).
T1 construct: Avi-KRAS G12C (2-169)
Put plainly: Raf1-KRAS G12C-GTP disruption HTRF assay (Biological Example 3). Type of assay: binding. Particulars: KRAS G12C, GTP-loaded. An outline of the steps:
(§1)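 Compounds were titrated 10-point, 3-fold from 30 μM against preformed KRAS-GTP:RAF1 RBD (51-131) complexes at 50 nM, using KRAS 2-169 as WT, G12C, G12D or G12V. After 1 h at room temperature in Tris pH 7.5 buffer with MgCl2 and 10% DMSO, time-resolved fluorescence was read. Results are percent activity versus DMSO.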

For assay [2], the system named is GP2d cells (KRAS G12D). Put plainly: Cell-based pERK HTRF assay in GP2d cell (Biological Example 2). To be noted: GP2d, GP2d (KRAS G12D) cells. An outline of the steps:
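Treatment with test compounds lasted one hour in DMEM containing 10% FBS, with DMSO held at 0.25%. Dilution series: 9 points, half-log spacing, highest 1 μM or 100 nM. Lysates were incubated 4–24 h at room temperature with antibody mix, then HTRF was read at 320 nm excitation.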
Background: TR-FRET usually uses a lanthanide donor and a delayed reading to cut background.

Assay [3] has as its target T2, Avi-KRAS G12D (2-169) GTP/RAF1 RBD-3xFLAG (51-131) (Homo sapiens, UniProt P01116, G12D).
T2 construct: Avi-KRAS G12D (2-169)
Description: Raf1-KRAS G12D-GTP disruption HTRF assay (Biological Example 3). To be noted: KRAS G12D, GTP-loaded. Type of assay: binding. An outline of the steps:
as §1

Assay [4] addresses T3, Avi-KRAS G12V (2-169) GTP/RAF1 RBD-3xFLAG (51-131) (Homo sapiens, UniProt P01116, G12V).
T3 construct: Avi-KRAS G12V (2-169)
Put plainly: Raf1-KRAS G12V-GTP disruption HTRF assay (Biological Example 3). Type of assay: binding. Particulars: KRAS G12V, GTP-loaded. The method, boiled down:
as §1

For assay [5], the target named is T4, Avi-KRAS WT (2-169) GTP/RAF1 RBD-3xFLAG (51-131) (Homo sapiens, UniProt P01116).
T4 construct: Avi-KRAS WT (2-169)
Description: Raf1-KRAS WT-GTP disruption HTRF assay (Biological Example 3). Type of assay: binding. To be noted: KRAS WT, GTP-loaded. An outline of the steps: as §1

Assay [6] addresses T5, Avi-KRAS G12V (1-169) GppNHp/RAF1 RBD-3xFLAG (52-151) (Homo sapiens, UniProt P01116, G12V).
T5 construct: Avi-KRAS G12V (1-169)
Put plainly: Raf1-KRAS G12V-GppNHP disruption HTRF assay (Biological Example 1). Particulars: KRAS G12V-GppNHp/RAF1 RBD HTRF. In kind it is binding. An outline of the steps:
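Compound disruption of KRAS-GppNHp/RAF1 RBD binding read by HTRF after two sequential 1 h room-temperature incubations (protein mix, then detection reagents), shaken at 700 rpm. Buffer Tris pH 7.5 with MgCl2, BSA, Tween and 10% DMSO; results given as percent activity relative to DMSO (100%).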

T4 sequence (P01116 2-169 isoform P01116-2): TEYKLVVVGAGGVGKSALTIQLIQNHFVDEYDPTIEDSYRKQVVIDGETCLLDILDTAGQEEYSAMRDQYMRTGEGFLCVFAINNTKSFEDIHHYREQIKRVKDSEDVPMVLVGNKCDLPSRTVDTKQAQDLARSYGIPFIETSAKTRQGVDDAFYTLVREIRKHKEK
T5 sequence (P01116 1-169 isoform P01116-2 G12V): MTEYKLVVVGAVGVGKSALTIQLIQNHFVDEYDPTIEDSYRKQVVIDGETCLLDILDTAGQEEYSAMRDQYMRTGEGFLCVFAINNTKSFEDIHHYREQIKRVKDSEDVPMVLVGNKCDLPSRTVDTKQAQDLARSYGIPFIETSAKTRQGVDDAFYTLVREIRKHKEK
T1 sequence (P01116 2-169 isoform P01116-2 G12C): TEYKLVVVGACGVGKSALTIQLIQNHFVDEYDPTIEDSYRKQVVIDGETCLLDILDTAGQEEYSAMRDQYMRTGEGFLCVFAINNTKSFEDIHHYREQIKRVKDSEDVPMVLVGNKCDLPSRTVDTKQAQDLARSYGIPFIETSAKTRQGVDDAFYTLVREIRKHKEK
T2 sequence (P01116 2-169 isoform P01116-2 G12D): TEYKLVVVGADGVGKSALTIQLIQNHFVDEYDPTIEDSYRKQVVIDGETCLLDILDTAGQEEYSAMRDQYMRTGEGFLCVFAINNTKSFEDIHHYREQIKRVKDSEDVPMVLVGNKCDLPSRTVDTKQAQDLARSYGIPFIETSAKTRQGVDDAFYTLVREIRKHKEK
T3 sequence (P01116 2-169 isoform P01116-2 G12V): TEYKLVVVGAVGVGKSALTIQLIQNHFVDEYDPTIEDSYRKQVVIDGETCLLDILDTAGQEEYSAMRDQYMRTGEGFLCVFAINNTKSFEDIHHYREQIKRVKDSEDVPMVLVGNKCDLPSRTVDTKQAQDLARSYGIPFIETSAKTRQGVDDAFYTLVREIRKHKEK

As a reminder, the IC50 is the concentration that inhibits the measured activity by half. Lower therefore signals greater potency in that assay. Consider `CCN(c1nc(OC[C@@]23CCCN2C[C@H](F)C3)nc2c(F)c(-c3ccc(F)c4sc(N)c(C#N)c34)c(C(F)(F)F)cc12)[C@H]1CCN(C(=O)c2ccon2)C1` (atropisomer, axis not shown) [Compound 554], for which the IC50 was 100 to 1000 nM in assay [1]; under 100 nM in assay [2]; under 100 nM in assay [2] (pERK HTRF); at most 100 nM in assay [3]; 100 to 1000 nM in assay [4]; 100 to 1000 nM in assay [5]. Further, the IC50 in assay [6] is under 100 nM.

Take `CCN(c1nc(OC[C@@]23CCCN2C[C@H](F)C3)nc2c(F)c(-c3ccc(F)c4sc(N)c(C#N)c34)c(C(F)(F)F)cc12)[C@H]1C[C@H]2COC(=O)N2C1` (atropisomer, axis not shown; (aS)) [Compound 518, 2-amino-4-((S)-4-(ethyl((6S,7aS)-3-oxotetrahydro-1H,3H-pyrrolo[1,2-c]oxazol-6-yl)amino)-8-fluoro-2-(((2R,7aS)-2-fluorotetrahydro-1H-pyrrolizin-7a(5H)-yl)methoxy)-6-(trifluoromethyl)quinazolin-7-yl)-7-fluorobenzo[b]thiophene-3-carbonitrile]: the half-maximal inhibitory concentration (IC50) is at most 100 nM in assay [1]; under 100 nM in assay [2]; under 100 nM in assay [2] (pERK HTRF); at most 100 nM in assay [3]; at most 100 nM in assay [4]; at most 100 nM in assay [5]. This molecule displayed an IC50 in assay [6] of under 100 nM.

Consider `CCN(c1nc(OC[C@@]23CCCN2C[C@H](F)C3)nc2c(F)c(-c3ccc(F)c4sc(N)c(C#N)c34)c(C(F)(F)F)cc12)[C@H]1C[C@H]2CN(C)C(=O)N2C1` (atropisomer, axis not shown; (aS)) [Compound 543, 2-amino-4-((S)-4-(ethyl((6S,7aS)-2-methyl-3-oxohexahydro-1H-pyrrolo[1,2-c]imidazol-6-yl)amino)-8-fluoro-2-(((2R,7aS)-2-fluorotetrahydro-1H-pyrrolizin-7a(5H)-yl)methoxy)-6-(trifluoromethyl)quinazolin-7-yl)-7-fluorobenzo[b]thiophene-3-carbonitrile], for which the IC50 in assay [1] was at most 100 nM; in assay [2], under 100 nM; in assay [2] (pERK HTRF), under 100 nM; in assay [3], at most 100 nM; in assay [4] it was at most 100 nM; in assay [5] it was at most 100 nM. Moreover, the IC50 in assay [6] was under 100 nM.

Take `CCN(c1nc(OC[C@@]23CCCN2C[C@H](F)C3)nc2c(F)c(-c3ccc(F)c4sc(N)c(C#N)c34)c(C(F)(F)F)cc12)[C@H]1CCN(C(=O)C(C)C)C1` (single isomer, unassigned) [Compound 469]: the IC50 was at most 100 nM in assay [1]; under 100 nM in assay [2]; under 100 nM in assay [2] (pERK HTRF); at most 100 nM in assay [3]; at most 100 nM in assay [4]; at most 100 nM in assay [5]. In assay [6], this molecule returned an IC50 of under 100 nM.

As for `Cc1c(C(=O)N(C)C)nn2c1CN(c1nc(OC[C@@]34CCCN3C[C@H](F)C4)nc3c(F)c(-c4ccc(F)c5sc(N)c(C#N)c45)c(C(F)(F)F)cc13)CC2` [Compound 501], the IC50 is 100 to 1000 nM in assay [1]; under 100 nM in assay [2]; under 100 nM in assay [2] (pERK HTRF); 100 to 1000 nM in assay [3]; 100 to 1000 nM in assay [4]; 100 to 1000 nM in assay [5]. Also, in assay [6], the IC50 lay within 100 to 1000 nM.

Consider `CCN(c1nc(OC[C@@]23CCCN2C[C@H](F)C3)nc2c(F)c(-c3ccc(F)c4sc(N)c(C#N)c34)c(C(F)(F)F)cc12)[C@@H]1C[C@@H]2CCC(=O)N2C1` [Compound 511], for which the IC50 was 1000 to 10000 nM in assay [1]; under 100 nM in assay [2]; under 100 nM in assay [2] (pERK HTRF); 1000 to 10000 nM in assay [3]; 1000 to 10000 nM in assay [4]; 100 to 1000 nM in assay [5]. The molecule further showed an IC50 in assay [6] of 100 to 1000 nM.

In the case of `CCN(c1nc(OC[C@@]23CCCN2C[C@H](F)C3)nc2c(F)c(-c3ccc(F)c4sc(N)c(C#N)c34)c(C(F)(F)F)cc12)C1C[C@@H](C)N(C(=O)C2CC2)C1` (some centres unmarked) [Compound 516], the IC50 is 100 to 1000 nM in assay [1]; under 100 nM in assay [2]; under 100 nM in assay [2] (pERK HTRF); 100 to 1000 nM in assay [3]; 100 to 1000 nM in assay [4]; 100 to 1000 nM in assay [5]. The molecule further came in with a 50% inhibitory concentration (IC50) in assay [6] of 100 to 1000 nM.

As for `CN(C)C(=O)c1nn2c(c1Cl)CN(c1nc(OC[C@@]34CCCN3C[C@H](F)C4)nc3c(F)c(-c4ccc(F)c5sc(N)c(C#N)c45)c(C(F)(F)F)cc13)CC2` [Compound 517], the IC50 was 100 to 1000 nM in assay [1]; under 100 nM in assay [2]; under 100 nM in assay [2] (pERK HTRF); 100 to 1000 nM in assay [3]; 100 to 1000 nM in assay [4]; 100 to 1000 nM in assay [5]. In assay [6], this molecule registered an IC50 of under 100 nM.

For `CCN(c1nc(OC[C@@]23CCCN2C[C@H](F)C3)nc2c(F)c(-c3ccc(F)c4sc(N)c(C#N)c34)c(C(F)(F)F)cc12)[C@@H]1CC(=O)N(C)C1` [Compound 520], the IC50 was 100 to 1000 nM in assay [1]; under 100 nM in assay [2]; under 100 nM in assay [2] (pERK HTRF); 100 to 1000 nM in assay [3]; 100 to 1000 nM in assay [4]; 100 to 1000 nM in assay [5]. The same molecule returned an IC50 in assay [6] of 100 to 1000 nM.

Consider `CCN1C[C@@H](N(CC)c2nc(OC[C@@]34CCCN3C[C@H](F)C4)nc3c(F)c(-c4ccc(F)c5sc(N)c(C#N)c45)c(C(F)(F)F)cc23)CC1=O` [Compound 529, 2-amino-4-(4-(ethyl((S)-1-ethyl-5-oxopyrrolidin-3-yl)amino)-8-fluoro-2-(((2R,7aS)-2-fluorotetrahydro-1H-pyrrolizin-7a(5H)-yl)methoxy)-6-(trifluoromethyl)quinazolin-7-yl)-7-fluorobenzo[b]thiophene-3-carbonitrile], for which the half-maximal inhibitory concentration (IC50) in assay [1] is at most 100 nM; in assay [2], under 100 nM; in assay [2] (pERK HTRF), under 100 nM; in assay [3] it was at most 100 nM; in assay [4], at most 100 nM; in assay [5], at most 100 nM. Also, in assay [6], the IC50 is under 100 nM.

With `CCN(c1nc(OC[C@@]23CCCN2C[C@H](F)C3)nc2c(F)c(-c3ccc(F)c4sc(N)c(C#N)c34)c(C(F)(F)F)cc12)[C@@H]1CC(=O)N(C2CC2)C1` [Compound 537], the IC50 in assay [1] was 100 to 1000 nM; in assay [2], under 100 nM; in assay [2] (pERK HTRF) it was under 100 nM; in assay [3], at most 100 nM; in assay [4], at most 100 nM; in assay [5], 100 to 1000 nM. The molecule further returned an IC50 in assay [6] of under 100 nM.
